Consider seven compounds from ChEMBL document CHEMBL1127749 (J Med Chem, 1994).

Experiment [1] deals with Muscarinic acetylcholine receptor M2 (Mus musculus) (UniProt Q9ERZ4). As to the kind of experiment: In vivo determination of peripheral M2 receptor mediated tremor, cholinergic side effect.
Experiment [2] shares this target. As to the kind of experiment: In vivo determination of peripheral M2 receptor mediated salivation, cholinergic side effect.
For experiment [3] the target is unchanged. Nature of the experiment: In vivo determination of peripheral M2 receptor mediated hypothermia, cholinergic side effect.
Experiment [4] shares this target. As to the kind of experiment: Compound was tested against peripheral M2 receptor mediated cholinergic side effect hypothermia; Very flat dose-response curve with about 50% of maximum response at 350 umol/kg.

Where only a bound is given, the exact number is not on record here.

Regarding `CCCCn1ncc(C2=CCCN(C)C2)n1`, the ED50 (as a rule, the dose at which the effect has come halfway, by size or by number of responders) is 72 µmol/kg in experiment [1], more than 160 µmol/kg in experiment [2] and 60 µmol/kg in experiment [3].
As to `C[N+](C)(C)CCOC(N)=O`, the median effective dose (ED50) in experiment [2] worked out at 120 µmol/kg; in experiment [3], 90 µmol/kg.
For `CCn1nnc(C2=CCCNC2)n1`, the values for the ED50 in experiment [1], in experiment [2] and in experiment [3] were more than 150 µmol/kg, 41 µmol/kg and 78 µmol/kg, respectively.
For `CCn1ncc(C2=CCCN(C)C2)n1`, the ED50 in experiment [1] amounted to 180 µmol/kg; in experiment [2] it was 400 µmol/kg; in experiment [4], 350 µmol/kg.
Consider `CCn1ncc(C2=CCCNC2)n1`, for which the ED50 in experiment [1] came to 60 µmol/kg; in experiment [2], 12 µmol/kg; in experiment [3], 19 µmol/kg.
In the same order, the values of `CCN1C(=O)CC2(CCN(C)CC2)C1=O` are 38 µmol/kg, 2.5 µmol/kg and 8.6 µmol/kg.
As for `CN1CCC=C(c2cnn(C)n2)C1`, the ED50 in experiment [1] is more than 110 µmol/kg; in experiment [2] it was 3.6 µmol/kg; in experiment [3], 5.3 µmol/kg.
